Reference: article PMC8296573, “Synthesis and Biological Evaluation of Fingolimod Derivatives as Antibacterial Agents” (ACS Omega, 2021)
Where two headings read alike, the source gives them in different places.

Tests used:
[1] = tested on: P. aeruginosa ATCC 9027; assay: Antibacterial activity, pre-exposure; type: cell-based, Pseudomonas aeruginosa; details: for Average inhibition %, biofilms biomass / Average inhibition %, biofilms viability / Average inhibition %, planktonic cells turbidity / Average inhibition %, planktonic cells viability: P. aeruginosa ATCC 9027, pre-exposure, ± SD
Outline: (§1)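 Pre-exposure format: compounds added with bacteria, 18 h aerobic at 37 °C with shaking. Planktonic growth read by OD and resazurin (20 μM final) fluorescence; biofilms by resazurin viability then crystal violet biomass (A595). Resazurin incubation time/temperature varied by species.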

[2] = tested on: A. baumannii NCTC 13423; assay: Antibacterial activity, pre-exposure; type: cell-based, Acinetobacter baumannii; details: for Average inhibition %, biofilms biomass / Average inhibition %, biofilms viability / Average inhibition %, planktonic cells turbidity / Average inhibition %, planktonic cells viability: A. baumannii NCTC 13423, pre-exposure, ± SD
Outline: as §1

[3] = tested on: S. aureus ATCC 25923; assay: Antibacterial activity, post-exposure on preformed 18-h-old biofilms; type: cell-based, Staphylococcus aureus; details: ± SD
Outline: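 Biofilms grown 18 h without compound, medium then replaced and compound added for a further 24 h. Planktonic OD and resazurin (20 μM final) fluorescence (ex 560/em 590 nm) read; washed biofilms stained with 20 μM resazurin 30 min at 37 °C, then ethanol-fixed and crystal violet-stained, absorbance 595 nm.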

[4] = tested on: S. aureus ATCC 25923; assay: Antibacterial activity, pre-exposure (planktonic cells and biofilm formation); type: cell-based, Staphylococcus aureus; details: for Average inhibition %, biofilms biomass / Average inhibition %, biofilms viability / Average inhibition %, planktonic cells turbidity / Average inhibition %, planktonic cells viability: ± SD
Outline: as §1

“2-Amino-2-(4-decylbenzyl)propane-1,3-diol [Compound 45]” was tested, and the “Average inhibition %, biofilms biomass” value ([1]; 50 µM) was 5 ± 3.4%, the “Average inhibition %, biofilms viability” value ([1]; 50 µM) was 8.1 ± 10.9% and the “Average inhibition %, planktonic cells turbidity” value ([1]; 50 µM) was 31.3 ± 5.3%. The “Average inhibition %, planktonic cells viability” value ([1]; 50 µM) was 24.4 ± 2.7%, the “Average inhibition %, biofilms biomass” value ([1]; 100 µM) was 2.5 ± 4.4% and the “Average inhibition %, biofilms viability” value ([1]; 100 µM) was 4 ± 6.6%. The “Average inhibition %, planktonic cells turbidity” value ([1]; 100 µM) was 41.8 ± 6%, the “Average inhibition %, planktonic cells viability” value ([1]; 100 µM) was 30 ± 7.6% and the “Average inhibition %, biofilms biomass” value ([1]; 150 µM) was 1.6 ± 2.8%. For the same substance, the “Average inhibition %, biofilms viability” value ([1]; 150 µM) was 1.9 ± 2.9%, the “Average inhibition %, planktonic cells turbidity” value ([1]; 150 µM) was 39.3 ± 3.3% and the “Average inhibition %, planktonic cells viability” value ([1]; 150 µM) was 36.5 ± 11.5%. The “Average inhibition %, biofilms biomass” value ([1]; 200 µM) was 0 ± 0%, the “Average inhibition %, biofilms viability” value ([1]; 200 µM) was 0 ± 0% and the “Average inhibition %, planktonic cells turbidity” value ([1]; 200 µM) was 40.7 ± 6.2%. For the same substance, the “Average inhibition %, planktonic cells viability” value ([1]; 200 µM) was 22.9 ± 11.2%, the “MIC P. aeruginosa ATCC 9027” value ([1]; pre-exposure, Inactive = no activity up to 200 μM, > = some inhibition but no MIC reached) was “Inactive” and the “Average inhibition %, biofilms biomass” value ([2]; 10 µM) was 0 ± 0%. For the same substance, the “Average inhibition %, biofilms viability” value ([2]; 10 µM) was 2.1 ± 3.6%, the “Average inhibition %, planktonic cells turbidity” value ([2]; 10 µM) was 0 ± 0% and the “Average inhibition %, planktonic cells viability” value ([2]; 10 µM) was 4.8 ± 2.9%. The “Average inhibition %, biofilms biomass” value ([2]; 15 µM) was 1 ± 1.8%, the “Average inhibition %, biofilms viability” value ([2]; 15 µM) was 0.5 ± 0.8% and the “Average inhibition %, planktonic cells turbidity” value ([2]; 15 µM) was 0 ± 0%. The “Average inhibition %, planktonic cells viability” value ([2]; 15 µM) was 2.8 ± 3.8%, the “Average inhibition %, biofilms biomass” value ([2]; 25 µM) was 0 ± 0% and the “Average inhibition %, biofilms viability” value ([2]; 25 µM) was 2.7 ± 4%. For the same substance, the “Average inhibition %, planktonic cells turbidity” value ([2]; 25 µM) was 0 ± 0%, the “Average inhibition %, planktonic cells viability” value ([2]; 25 µM) was 0 ± 0% and the “Average inhibition %, biofilms biomass” value ([2]; 50 µM) was 0.7 ± 1.3%. The “Average inhibition %, biofilms viability” value ([2]; 50 µM) was 6.5 ± 7.4%, the “Average inhibition %, planktonic cells turbidity” value ([2]; 50 µM) was 0 ± 0% and the “Average inhibition %, planktonic cells viability” value ([2]; 50 µM) was 0 ± 0%. The “MIC A. baumannii NCTC 13423” value ([2]; pre-exposure, Inactive = no activity up to 50 μM, > = some inhibition but no MIC reached) was “Inactive”, the “Average inhibition %, biofilms biomass” value ([3]; 25 µM) was 36.9 ± 3% and the “Average inhibition %, biofilms viability” value ([3]; 25 µM) was 15.5 ± 10.9%. For the same substance, the “Average inhibition %, planktonic cells turbidity” value ([3]; 25 µM) was 9.2 ± 8.6%, the “Average inhibition %, planktonic cells viability” value ([3]; 25 µM) was 1 ± 1.7% and the “Average inhibition %, biofilms biomass” value ([3]; 50 µM) was 39.5 ± 9%. The “Average inhibition %, biofilms viability” value ([3]; 50 µM) was 25.2 ± 5.5%, the “Average inhibition %, planktonic cells turbidity” value ([3]; 50 µM) was 28.1 ± 16.3% and the “Average inhibition %, planktonic cells viability” value ([3]; 50 µM) was 22.5 ± 18.5%. For the same substance, the “Average inhibition %, biofilms biomass” value ([3]; 100 µM) was 51.3 ± 5.8%, the “Average inhibition %, biofilms viability” value ([3]; 100 µM) was 23.1 ± 10.2% and the “Average inhibition %, planktonic cells turbidity” value ([3]; 100 µM) was 45.7 ± 12.8%. For the same substance, the “Average inhibition %, planktonic cells viability” value ([3]; 100 µM) was 59.7 ± 16.4%, the “Average inhibition %, biofilms biomass” value ([3]; 200 µM) was 47.7 ± 12.7% and the “Average inhibition %, biofilms viability” value ([3]; 200 µM) was 17.1 ± 16.5%. The “Average inhibition %, planktonic cells turbidity” value ([3]; 200 µM) was 53.9 ± 18.7%, the “Average inhibition %, planktonic cells viability” value ([3]; 200 µM) was 70.7 ± 12.5% and the “MIC S. aureus ATCC 25923” value ([4]; lowest concentration with no visible growth (>90% inhibition of turbidity and viability of planktonic cells), 18 h) was 5 to 10 µM. For the same substance, the MIC ([4]; lowest concentration with no visible growth (>90% inhibition of turbidity and viability of planktonic cells), 18 h, read-out: MIC S. aureus ATCC 25923) was 10 µM, the “Average inhibition %, biofilms biomass” value ([4]; pre-exposure, 5 µM) was 45.3 ± 46.5% and the “Average inhibition %, biofilms viability” value ([4]; pre-exposure, 5 µM) was 45.4 ± 46.1%. The “Average inhibition %, planktonic cells turbidity” value ([4]; pre-exposure, 5 µM) was 45.7 ± 46.9%, the “Average inhibition %, planktonic cells viability” value ([4]; pre-exposure, 5 µM) was 41.5 ± 50.3% and the “Average inhibition %, biofilms biomass” value ([4]; pre-exposure, 10 µM) was 92.5 ± 4.8%. The “Average inhibition %, biofilms viability” value ([4]; pre-exposure, 10 µM) was 98.9 ± 0.5%, the “Average inhibition %, planktonic cells turbidity” value ([4]; pre-exposure, 10 µM) was 99 ± 0.7% and the “Average inhibition %, planktonic cells viability” value ([4]; pre-exposure, 10 µM) was 99.8 ± 0.1%. For the same substance, the “Average inhibition %, biofilms biomass” value ([4]; pre-exposure, 15 µM) was 91.8 ± 4.7%, the “Average inhibition %, biofilms viability” value ([4]; pre-exposure, 15 µM) was 99.7 ± 0.1% and the “Average inhibition %, planktonic cells turbidity” value ([4]; pre-exposure, 15 µM) was 98.9 ± 0.7%. For the same substance, the “Average inhibition %, planktonic cells viability” value ([4]; pre-exposure, 15 µM) was 99.7 ± 0.1%, the “Average inhibition %, biofilms biomass” value ([4]; pre-exposure, 25 µM) was 91.8 ± 5.6% and the “Average inhibition %, biofilms viability” value ([4]; pre-exposure, 25 µM) was 99.7 ± 0%. The “Average inhibition %, planktonic cells turbidity” value ([4]; pre-exposure, 25 µM) was 98.6 ± 0.6%, the “Average inhibition %, planktonic cells viability” value ([4]; pre-exposure, 25 µM) was 99.8 ± 0.2% and the MIC ([4]; pre-exposure, lowest value among replicates, read-out: MIC S. aureus ATCC 25923, for some replicates) was 5 µM. For the same substance, the “MIC (S. aureus)” value ([4]; supplementary molecular formula strings sheet) was 5 to 10 µM.
